Results taken from patent US11246320B2, “Casein glycomacropeptide (CGMP) oligomers” (Chr. Hansen A/S, priority 2017, dated 2022).
Values belong to the molecule of their own block, whether it stands above or below them.

Experiments:
[1] = cited from earlier work; for pKsp: comparison values
[2] = Stability of curcumin, free versus encapsulated (absorbance at 420 nm); assay type: physicochemical
Procedure: To prepare a stock solution of curcumin, 100 mg of commercial turmeric powder was suspended in 10 mL of ethanol and vortex and kept for inversion for 2 hours. The tube was closed and covered with aluminum foil to prevent the degradation of curcumin by oxidation and UV light. Next, the suspension was centrifuged at 13200 rpm for 30 minutes to separate the insoluble particles form the ethanol solubilized curcumin. The supernatant was carefully collected and this was used as a stock solution of curcumin in ethanol. The stock solution was adjusted with ethanol so that a 100 x dilution of this stock solution in MQ-Water gave an absorbance of 2±0.1 at 420 nm, when measured immediately after the dilution. If stored at ambient conditions, the absorbance decreases rapidly due to degradation of curcumin by oxidation and light.
To load curcumin 10 μL of curcumin stock solution was added to 990 μL of buffer (±lactase) which was used for encapsulation. The loaded curcumin was not removed by repeated washing and this indicated good encapsulation and stabilization. The microcapsule suspension with encapsulated curcumin appeared yellow.

SMILES: O=P([O-])([O-])[O-].O=P([O-])([O-])[O-].[Ca+2].[Ca+2].[Ca+2] [CaP, Ca3(PO4)2]
- Ksp ([1]; 25° C.): 2.07×10^−33

SMILES: O=C([O-])[O-].[Ca+2] [calcium carbonate]
- pKsp [1]: 8.47

SMILES: [Ca+2].[OH-].[OH-] [calcium hydroxide]
- pKsp [1]: 5.3

- increase of half-life ([2]; encapsulated in CaP particles stabilized by oligo-CGMP or in liposomes, versus storage at ambient conditions): 5-10 times
- stability as indicated by half and quarter-life ([2]; encapsulated in oligo-CGMP micelles): significantly increased
SMILES: COc1cc(/C=C/C(=O)CC(=O)/C=C/c2ccc(O)c(OC)c2)ccc1O [curcumin]
